For this test, the target named is T1, human TLR7 (Homo sapiens, UniProt Q9NYK1).
T1 construct: host or cells: HEK293 (HEK-Blue hTLR7)
T1 sequence (Q9NYK1 27-1049): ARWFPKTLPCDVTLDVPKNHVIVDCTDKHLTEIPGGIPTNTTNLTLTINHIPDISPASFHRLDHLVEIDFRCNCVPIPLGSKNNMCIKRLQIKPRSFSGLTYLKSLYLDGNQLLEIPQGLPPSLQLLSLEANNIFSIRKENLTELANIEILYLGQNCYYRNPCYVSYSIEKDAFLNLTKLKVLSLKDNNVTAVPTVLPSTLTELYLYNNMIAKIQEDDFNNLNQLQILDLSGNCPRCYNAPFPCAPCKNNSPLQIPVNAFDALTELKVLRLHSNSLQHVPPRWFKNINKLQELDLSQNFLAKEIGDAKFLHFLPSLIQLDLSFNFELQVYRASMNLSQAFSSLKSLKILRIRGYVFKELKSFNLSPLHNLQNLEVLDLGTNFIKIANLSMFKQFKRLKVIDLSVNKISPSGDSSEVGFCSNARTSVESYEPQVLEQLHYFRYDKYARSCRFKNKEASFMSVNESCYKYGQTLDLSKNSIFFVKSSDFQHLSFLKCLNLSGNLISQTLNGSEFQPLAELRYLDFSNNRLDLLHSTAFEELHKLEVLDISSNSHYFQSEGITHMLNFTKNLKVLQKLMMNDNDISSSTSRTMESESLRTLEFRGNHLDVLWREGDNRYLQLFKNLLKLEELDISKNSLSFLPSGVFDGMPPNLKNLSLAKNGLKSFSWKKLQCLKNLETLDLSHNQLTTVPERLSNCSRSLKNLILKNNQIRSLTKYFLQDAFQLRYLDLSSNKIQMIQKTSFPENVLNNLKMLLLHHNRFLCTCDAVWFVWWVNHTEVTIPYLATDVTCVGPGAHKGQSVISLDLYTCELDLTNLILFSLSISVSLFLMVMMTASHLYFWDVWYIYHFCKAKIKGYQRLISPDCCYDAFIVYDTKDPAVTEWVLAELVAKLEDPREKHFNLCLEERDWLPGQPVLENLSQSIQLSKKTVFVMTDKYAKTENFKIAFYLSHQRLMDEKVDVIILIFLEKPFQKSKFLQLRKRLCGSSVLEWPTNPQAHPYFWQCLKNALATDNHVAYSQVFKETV
Kind of test: HEK293-Blue hTLR7 Reporter Assay (QUANTI-BLUE, SEAP readout). The test is classed as cell-based. The settings on record: HEK-Blue-hTLR7 cells, 24 hrs treatment, Table 1, B1-B232. The procedure: HEK293-Blue hTLR7 Reporter Assay: HEK-Blue-hTLR7 cell line (Invivogen, Cat. No. hkb-htlr7) was designed so that the expression of the secreted embryonic alkaline phosphatase (SEAP) was induced by activating NF-κ and AP-1 via stimulating human TLR7 with TLR7 agonists. HEK-Blue-hTLR7 cells were seeded at a density of 4×10^4 cells/well in a volume of 180 μL in a 96-well plate in DMEM (Cat. No. 11965-092) supplemented with 10% (v/v) heat-inactivated fetal bovine serum (FBS) (Gibco, 10099-1441), 100 U/ml penicillin and 100 μg/ml streptomycin (Gibco, 15140122) containing 50 U/mL penicillin, […] and 10% (v/v) heat-inactivated fetal bovine serum. The cells were settled for 5 hrs, then treated with increasing amounts of tested compounds at 37° C. for 24 hrs. Then 20 μL of the supernatant from each well was incubated with 180 μL Quanti-blue substrate solution at 37° C. for 10-30 mins before the activity of the SEAP was determined at 620-655 nm using a spectrophotometer. The EC50 value for each compound was calculated with GraphPad Prism software using the sigmoidal dose-response function.

For 24 compounds, EC50 results are on record in patent US12612407B2, “Imidazo[2,1-f][1,2,4]triazin-4-amine derivatives as TLR7 agonist” (BEIGENE, LTD., priority 2020, dated 2026).

Some results are limits rather than exact numbers.

By EC50 is commonly meant the concentration giving half of the maximal effect. As to `CC[C@@H](C)Oc1nc(N)c2ncc(Cc3cnc(N4CCN(C(=O)CN(C)C)CC4)c(C)c3)n2n1` [Compound B153, (R)-1-(4-(5-((4-amino-2-(sec-butoxy)imidazo[2,1-f][1,2,4]triazin-7-yl)methyl)-3-methylpyridin-2-yl)piperazin-1-yl)-2-(dimethylamino)ethan-1-one], a half-maximal effect (EC50) was put at 49 nM.

With `CCOc1nc(N)c2ncc(Cc3cnc(N4CCNCC4)c(C)c3)n2n1` [Compound B63, 2-ethoxy-7-((5-methyl-6-(piperazin-1-yl)pyridin-3-yl)methyl)imidazo[2,1-f][1,2,4]triazin-4-amine], it took 900 nM to reach a half-maximal effect (EC50).

With `CCCCOc1nc(N)c2ncc(Cc3cnc(N4CCN(CCN(C)C)CC4)c(C)c3)n2n1` [Compound B76, 2-butoxy-7-((6-(4-(2-(dimethylamino)ethyl)piperazin-1-yl)-5-methylpyridin-3-yl)methyl)imidazo[2,1-f][1,2,4]triazin-4-amine], the half-maximal effective concentration (EC50) was determined as 94 nM.

On to `CCCCOc1nc(N)c2ncc(Cc3ccc(N4CCNCC4)c(OCCC)c3)n2n1` [Compound B99, 2-butoxy-7-(4-(piperazin-1-yl)-3-propoxybenzyl)imidazo[2,1-f][1,2,4]triazin-4-amine], for which the response was half-maximal at 926 nM (EC50).

`CCCC(CCC)Oc1nc(N)c2ncc(Cc3cnc(N4CCC(CN(C)C)CC4)c(C)c3)n2n1` [Compound B198, 7-((6-(4-((dimethylamino)methyl)piperidin-1-yl)-5-methylpyridin-3-yl)methyl)-2-(heptan-4-yloxy)imidazo[2,1-f][1,2,4]triazin-4-amine] had a 50% effective concentration (EC50) of 4.1 nM.

Consider `CCCCOc1nc(N)c2ncc(Cc3cnc(N4CCCC4)c(C)c3)n2n1` [Compound B51, 2-butoxy-7-((5-methyl-6-(pyrrolidin-1-yl)pyridin-3-yl)methyl)imidazo[2,1-f][1,2,4]triazin-4-amine], for which the half-maximal effective concentration (EC50) was greater than 10000 nM.

`CCCCOc1nc(N)c2ncc(Cc3cnc(N4CCC(COC)CC4)c(C)c3)n2n1` [Compound B104, 2-butoxy-7-((6-(4-(methoxymethyl)piperidin-1-yl)-5-methylpyridin-3-yl)methyl)imidazo[2,1-f][1,2,4]triazin-4-amine] yielded an EC50 greater than 10000 nM.

`CCC[C@H](C)Nc1nc(N)c2ncc(Cc3cnc(N4CCN(C(=O)CNC)CC4)c(C)c3)n2n1` [Compound B231, (S)-1-(4-(5-((4-amino-2-(pentan-2-ylamino)imidazo[2,1-f][1,2,4]triazin-7-yl)methyl)-3-methylpyridin-2-yl)piperazin-1-yl)-2-(methylamino)ethan-1-one]: it took 4.1 nM to reach a half-maximal effect (EC50).

Consider `CCCCOc1nc(N)c2ncc(Cc3ccc(C4CCCNC4)cc3)n2n1` (stereo not drawn) [Compound B20, 2-butoxy-7-(4-(piperidin-3-yl)benzyl)imidazo[2,1-f][1,2,4]triazin-4-amine], for which a half-maximal response (EC50) required 7990 nM.

In turn, `CCCCOc1nc(N)c2ncc(Cc3cnc(N4CCNCC4)c(F)c3)n2n1` [Compound B9, 2-butoxy-7-((5-fluoro-6-(piperazin-1-yl)pyridin-3-yl)methyl)imidazo[2,1-f][1,2,4]triazin-4-amine] yielded a 50% effective concentration (EC50) of 345 nM. Compared with the last compound, the EC50 is about 23-fold lower.

Compound `CCC[C@H](C)Oc1nc(N)c2ncc(Cc3cnc(N4CCN(C(=O)CN(C)C)CC4)c(C)c3)n2n1` [Compound B125, (S)-1-(4-(5-((4-amino-2-(pentan-2-yloxy)imidazo[2,1-f][1,2,4]triazin-7-yl)methyl)-3-methylpyridin-2-yl)piperazin-1-yl)-2-(dimethylamino)ethan-1-one] returned an EC50 of 2.5 nM.

`CCCCOc1nc(N)c2ncc(Cc3cnc(N4CCC(CN5CCOCC5)CC4)c(C)c3)n2n1` [Compound B109, 2-butoxy-7-((5-methyl-6-(4-(morpholinomethyl)piperidin-1-yl)pyridin-3-yl)methyl)imidazo[2,1-f][1,2,4]triazin-4-amine] showed a concentration for a half-maximal effect (EC50) of 161 nM.

As for `CCCCOc1nc(N)c2ncc(Cc3cnc(N4CCCCCC4)c(C)c3)n2n1` [Compound B35, 7-((6-(azepan-1-yl)-5-methylpyridin-3-yl)methyl)-2-butoxyimidazo[2,1-f][1,2,4]triazin-4-amine], the EC50 is greater than 10000 nM.

Compound `CCCC(C)Nc1nc(N)c2ncc(Cc3cnc(N4CCN(C(=O)CN(C)C)CC4)c(C)c3)n2n1` (stereo not drawn) [Compound B151, 1-(4-(5-((4-amino-2-(pentan-2-ylamino)imidazo[2,1-f][1,2,4]triazin-7-yl)methyl)-3-methylpyridin-2-yl)piperazin-1-yl)-2-(dimethylamino)ethan-1-one] registered an EC50 of 3 nM. In other words, the single-digit nanomolar range.

`CCCCOc1nc(N)c2ncc(Cc3cnc(N4CCN(C(=O)CN5CCNCC5)CC4)c(C)c3)n2n1` [Compound B40, 1-(4-(5-((4-amino-2-butoxyimidazo[2,1-f][1,2,4]triazin-7-yl)methyl)-3-methylpyridin-2-yl)piperazin-1-yl)-2-(piperazin-1-yl)ethan-1-one] displayed an EC50 of 908 nM.

In turn, `CC[C@@H](C)Oc1nc(N)c2ncc(Cc3cnc(N4CCNCC4)c(C)c3)n2n1` [Compound B152, (R)-2-(sec-butoxy)-7-((5-methyl-6-(piperazin-1-yl)pyridin-3-yl)methyl)imidazo[2,1-f][1,2,4]triazin-4-amine] came in with an EC50 of 56 nM.

For the compound `CCCCOc1nc(N)c2ncc(Cc3cnc(N4CCN(C(=O)C5CCNCC5)CC4)c(C)c3)n2n1` [Compound B56, (4-(5-((4-amino-2-butoxyimidazo[2,1-f][1,2,4]triazin-7-yl)methyl)-3-methylpyridin-2-yl)piperazin-1-yl)(piperidin-4-yl)methanone], the response was half-maximal at 422 nM (EC50).

Take `CCCCOc1nc(N)c2ncc(Cc3cnc(N4CCNC[C@@H]4C)c(C)c3)n2n1` [Compound B73, (S)-2-butoxy-7-((5-methyl-6-(2-methylpiperazin-1-yl)pyridine-3-yl)methyl)imidazo[2,1-f][1,2,4]triazin-4-amine]: the 50% effective concentration (EC50) is 532 nM.

Consider `CCC(CC)Nc1nc(N)c2ncc(Cc3cnc(N4CCN(C(=O)CNC)CC4)c(C)c3)n2n1` [Compound B175, 1-(4-(5-((4-amino-2-(pentan-3-ylamino)imidazo[2,1-f][1,2,4]triazin-7-yl)methyl)-3-methylpyridin-2-yl)piperazin-1-yl)-2-(methylamino)ethan-1-one], for which the concentration giving a half-maximal response (EC50) turned out to be 3.3 nM.

The compound `COCCOCCOCCOCCOc1nc(N)c2ncc(Cc3cnc(N4CCNCC4)c(C)c3)n2n1` [Compound B100, 2-((2,5,8,11-tetraoxatridecan-13-yl)oxy)-7-((5-methyl-6-(piperazin-1-yl)pyridin-3-yl)methyl)imidazo[2,1-f][1,2,4]triazin-4-amine] had a 50% effective concentration (EC50) greater than 10000 nM.

The compound `CCCC(CCO)Oc1nc(N)c2ncc(Cc3cnc(N4CCN(C(=O)CN(C)C)CC4)c(C)c3)n2n1` (stereo not drawn) [Compound B176, 1-(4-(5-((4-amino-2-((1-hydroxyhexan-3-yl)oxy)imidazo[2,1-f][1,2,4]triazin-7-yl)methyl)-3-methylpyridin-2-yl)piperazin-1-yl)-2-(dimethylamino)ethan-1-one] came in with a 50% effective concentration (EC50) of 8.6 nM.

`CCCC(Nc1nc(N)c2ncc(Cc3cnc(N4CCNCC4)c(C)c3)n2n1)C(F)(F)F` (stereo not drawn) [Compound B227, 7-((5-methyl-6-(piperazin-1-yl)pyridin-3-yl)methyl)-N2-(1,1,1-trifluoropentan-2-yl)imidazo[2,1-f][1,2,4]triazine-2,4-diamine]: the EC50 is 25 nM.

Regarding `CCCCOc1nc(N)c2ncc(Cc3cnc(N4CCC(CN)CC4)c(C)c3)n2n1` [Compound B144, 7-((6-(4-(aminomethyl)piperidin-1-yl)-5-methylpyridin-3-yl)methyl)-2-butoxyimidazo[2,1-f][1,2,4]triazin-4-amine], the EC50 is greater than 10000 nM.

As for `CCCC(CCC)Nc1nc(N)c2ncc(Cc3cnc(N4CCN(C(=O)CNC)CC4)c(C)c3)n2n1` [Compound B196, 1-(4-(5-((4-amino-2-(heptan-4-ylamino)imidazo[2,1-f] [1,2,4]triazin-7-yl)methyl)-3-methylpyridin-2-yl)piperazin-1-yl)-2-(methylamino)ethan-1-one], the response was half-maximal at 5.7 nM (EC50).
